Measured values as given in US12030868B2, “Prodrugs of CGRP antagonists” (Pfizer Ireland Pharmaceuticals, priority 2018, dated 2024).
Counter-ions that a name gives are not always drawn.

What was measured:
[1] = tested on: Caco-2 cells; assay: Caco-2 permeability assay; type: in vitro ADME, human; settings: Caco-2 monolayer, donor 10 μM, 90 minutes, 37° C., pH 7.4; for Papp A-B: apical to basolateral; for Papp B-A: basolateral to apical
Experimental: (§1) Caco-2 Permeability Assay
(§2) The Caco-2 cells are cultured to confluency, trypsinized and seeded onto a filter transwell insert at a density of ^˜32,000 cells/well in DMEM cell culture medium. Cells are grown in a humidified atmosphere of 5% CO2 at 37° C. Following an overnight attachment period (24 h after seeding), the cell medium is replaced with fresh medium in both the apical and basolateral compartments every other day. The cell monolayers are used for transport studies 21 days post seeding after measuring the TEER values ([…]). The apical sides and basolateral sides are washed consecutively with HBSS 2.5% (v/v), HEPES (pH 7.4) or HBSS 2.5% (v/v), HEPES 10% (v/v), and Fetal Bovine Serum (pH 7.4) at 37° C. in an incubator under an atmosphere of 5% CO2.
(§3) Donor working solution is prepared by dilution of DMSO stock of test article or positive control with transport media to 10 μM.
(§4) For A→B directional transport, the donor working solution (with test article or positive control, with or without Pgp inhibitor) is added to the apical (A) compartment and the transport media as receiver working solution is added to the basolateral (B) compartment. For B→A directional transport, the donor working solution (with positive control or test article, with or without Pgp inhibitor) is added to the basolateral (B) compartment and transport media as receiver working solution is added to the apical (A) compartment.
(§5) The cells are incubated in a humidified atmosphere of 5% CO2 at 37° C. for 90 minutes.
(§6) At the end of the incubation, samples are taken from both donor and receiver compartments and transferred into 96-well assay plates containing internal standard solution (IS) in each well. After centrifugation, the supernatant solutions are transferred to clean 96 well plates and analyzed by LC-MS/MS. The MS detection is performed using a Sciex API 4000 instrument. Each compound is analyzed by reversed phase HPLC.
(§7) The parameters Papp (apparent permeability) and efflux ratio are calculated as follows: Papp=(dQ/dt)×(1/C0)×(1/A) Efflux ratio=Papp[B→A]/Papp[A→B] • where dQ/dt is the permeability rate, C0 is the initial concentration in the donor compartment, and A is the surface area of the cell monolayer (0.33 cm^2). The Papp value is a rate measured in cm/s.
(§8) Comparing the efflux ratios generated in the presence and absence of a Pgp inhibitor identifies whether the test article is a Pgp substrate.
(§9) Recovery is calculated as follows: % Recovery=(Total compound mass in donor and receiver compartments at the end of the incubation/Initial compound mass in the donor compartment)×100.

[2] = Caco-2 permeability assay; type: in vitro ADME, human; settings: human, Caco-2 monolayer, donor 10 μM, 37° C., pH 7.4; for Papp A→B at 90 min, 10 μM: apical to basolateral; for Papp B→A at 90 min, 10 μM: basolateral to apical
Experimental: as §1, §2, §3, §4, §5, §6, §7, §8, §9

Compound | Papp A→B at 90 min, 10 μM [2] [×10⁻⁶ cm/s] | Papp B→A at 90 min, 10 μM [2] [×10⁻⁶ cm/s] | Papp A-B [1] [×10⁻⁶ cm/s] | Papp B-A [1] [×10⁻⁶ cm/s]
(R)-(7-methyl-5-(3-(4-(1-methylpiperidin-4-yl)piperazin-1-yl)-3-oxo-2-(4-(2-oxo-1,2-dihydroquinolin-3-yl)piperidine-1-carboxamido)propyl)-1H-indazol-1-yl)methyl heptanoate compound with (R)-(7-methyl-5-(3-(4-(1-methylpiperidin-4-yl)piperazin-1-yl)-3-oxo-2-(4-(2-oxo-1,2-dihydroquinolin-3-yl)piperidine-1-carboxamido)propyl)-2H-indazol-2-yl)methyl heptanoate (1:1) [Example 61] | – | – | 2.5 | 1.96
Cc1cc(C[C@@H](NC(=O)N2CCC(c3cc4ccccc4n(COC(=O)C(C)(C)C)c3=O)CC2)C(=O)N2CCN(C3CCN(C)CC3)CC2)cc2cn(COC(=O)C(C)(C)C)nc12 [Example 4, {5-[(2R)-2-{[4-(1-{[(2,2-dimethylpropanoyl)oxy]methyl}-2-oxo-1,2-dihydroquinolin-3-yl)piperidine-1-carbonyl]amino}-3-[4-(1-methylpiperidin-4-yl)piperazin-1-yl]-3-oxopropyl]-7-methyl-2H-indazol-2-yl}methyl 2,2-dimethylpropanoate trifluoroacetate] | 5.1 | 2.9 | – | –
Cc1cc(C[C@@H](NC(=O)N2CCC(c3cc4ccccc4[nH]c3=O)CC2)C(=O)N2CCN(C3CCN(C)CC3)CC2)cc2cn[nH]c12 [BHV-3500, N-[(2R)-3-(7-methyl-1H-indazol-5-yl)-1-[4-(1-methylpiperidin-4-yl)piperazin-1-yl]-1-oxopropan-2-yl]-4-(2-oxo-1,2-dihydroquinolin-3-yl)piperidine-1-carboxamide, reference compound] | < 0.05 | – | – | –
Cc1cc2cc3cn(nc13)COC(=O)C(C)(C)C/C=C\CC(C)(C)C(=O)OCn1c(=O)c(cc3ccccc31)C1CCN(CC1)C(=O)N[C@@H](C(=O)N1CCN(C3CCN(C)CC3)CC1)C2 [Example 10, (16Z,31R)-14,14,19,19,27-pentamethyl-31-[4-(1-methylpiperidin-4-yl)piperazine-1-carbonyl]-12,21-dioxa-10,23,32,34,40-pentaazahexacyclo[32.2.2.1^2,10.1^23,26.1^25,29.0^4,9]hentetraconta-2,4(9),5,7,16,24,26(40),27,29(39)-nonaene-13,20,33,41-tetrone] | 0.31 | 28.9 | – | –
(R)-(3-(1-(3-(7-methyl-2-(octanoyloxymethyl)-2H-indazol-5-yl)-1-(4-(1-methylpiperidin-4-yl)piperazin-1-yl)-1-oxopropan-2-ylcarbamoyl)piperidin-4-yl)-2-oxoquinolin-1(2H)-yl)methyl octanoate compound with (R)-heptyl 7-methyl-5-(3-(4-(1-methylpiperidin-4-yl)piperazin-1-yl)-2-(4-(1-(octanoyloxymethyl)-2-oxo-1,2-dihydroquinolin-3-yl)piperidine-1-carboxamido)-3-oxopropyl)-1H-indazole-1-carboxylate (1:1) [Example 59] | – | – | 2.2 | 7.6

Further lines, with some results ahead:

Papp A→B at 90 min, 10 μM [2] [×10⁻⁶ cm/s] | Papp B→A at 90 min, 10 μM [2] [×10⁻⁶ cm/s] | Compound | Papp A-B [1] [×10⁻⁶ cm/s] | Papp B-A [1] [×10⁻⁶ cm/s]
0.839 | 20 | Cc1cc2cc3cn(nc13)COC(=O)C1(C/C=C\CC3(CC3)C(=O)OCn3c(=O)c(cc4ccccc43)C3CCN(CC3)C(=O)N[C@@H](C(=O)N3CCN(C4CCN(C)CC4)CC3)C2)CC1 [Example 13, (16′Z,31′S)-27′-methyl-31′-[4-(1-methylpiperidin-4-yl)piperazine-1-carbonyl]dispiro[cyclopropane-1,14′-[12,21]dioxa-[10,23,32,34,40]pentaazahexacyclo[32.2.2.1^2,10.1^23,26.1^25,29.0^4,9]hentetracontane-19′,1″-cyclopropane]-2′,4′(9′),5′,7′,16′,24′,26′(40′),27′,29′(39′)-nonaene-13′,20′,33′,41′-tetrone trifluoroacetate] | – | –
2.2 | 13.9 | Cc1cc2cc3cn(nc13)COC(=O)C(C)(C)CCCCC(C)(C)C(=O)OCn1c(=O)c(cc3ccccc31)C1CCN(CC1)C(=O)N[C@@H](C(=O)N1CCN(C3CCN(C)CC3)CC1)C2 [Example 125, (31R)-14,14,19,19,27-pentamethyl-31-[4-(1-methylpiperidin-4-yl)piperazine-1-carbonyl]-12,21-dioxa-10,23,32,34,40-pentaazahexacyclo[32.2.2.1^2,10.1^23,26.1^25,29.0^4,9]hentetraconta-2,4,6,8,24,26(40),27,29(39)-octaene-13,20,33,41-tetrone] | – | –
1.13 | 10.7 | CCCCCCN(C)C(=O)OCn1cc2cc(C[C@@H](NC(=O)N3CCC(c4cc5ccccc5n(COC(=O)N(C)CCCCCC)c4=O)CC3)C(=O)N3CCN(C4CCN(C)CC4)CC3)cc(C)c2n1 [Example 93, {5-[(2R)-2-({4-[1-({[hexyl(methyl)carbamoyl]oxy}methyl)-2-oxo-1,2-dihydroquinolin-3-yl]piperidine-1-carbonyl}amino)-3-[4-(1-methylpiperidin-4-yl)piperazin-1-yl]-3-oxopropyl]-7-methyl-2H-indazol-2-yl}methyl N-hexyl-N-methylcarbamate] | – | –
